Measured values from patent publication US9447100B2, “Substituted pyrazolo[1,5-A] pyrimidines as calcium receptor modulating agents” (Takeda Pharmaceutical Company Limited, priority 2002, dated 2016).

Target: T1, human CaR (Homo sapiens, UniProt P41180)
T1 construct: expressed in transfected cells; host or cells: CHO-K1 cells stably transfected with pMSRαneo-CaR (cDNA amplified from human kidney cDNA); membrane fraction used
T1 sequence (P41180 20-1078): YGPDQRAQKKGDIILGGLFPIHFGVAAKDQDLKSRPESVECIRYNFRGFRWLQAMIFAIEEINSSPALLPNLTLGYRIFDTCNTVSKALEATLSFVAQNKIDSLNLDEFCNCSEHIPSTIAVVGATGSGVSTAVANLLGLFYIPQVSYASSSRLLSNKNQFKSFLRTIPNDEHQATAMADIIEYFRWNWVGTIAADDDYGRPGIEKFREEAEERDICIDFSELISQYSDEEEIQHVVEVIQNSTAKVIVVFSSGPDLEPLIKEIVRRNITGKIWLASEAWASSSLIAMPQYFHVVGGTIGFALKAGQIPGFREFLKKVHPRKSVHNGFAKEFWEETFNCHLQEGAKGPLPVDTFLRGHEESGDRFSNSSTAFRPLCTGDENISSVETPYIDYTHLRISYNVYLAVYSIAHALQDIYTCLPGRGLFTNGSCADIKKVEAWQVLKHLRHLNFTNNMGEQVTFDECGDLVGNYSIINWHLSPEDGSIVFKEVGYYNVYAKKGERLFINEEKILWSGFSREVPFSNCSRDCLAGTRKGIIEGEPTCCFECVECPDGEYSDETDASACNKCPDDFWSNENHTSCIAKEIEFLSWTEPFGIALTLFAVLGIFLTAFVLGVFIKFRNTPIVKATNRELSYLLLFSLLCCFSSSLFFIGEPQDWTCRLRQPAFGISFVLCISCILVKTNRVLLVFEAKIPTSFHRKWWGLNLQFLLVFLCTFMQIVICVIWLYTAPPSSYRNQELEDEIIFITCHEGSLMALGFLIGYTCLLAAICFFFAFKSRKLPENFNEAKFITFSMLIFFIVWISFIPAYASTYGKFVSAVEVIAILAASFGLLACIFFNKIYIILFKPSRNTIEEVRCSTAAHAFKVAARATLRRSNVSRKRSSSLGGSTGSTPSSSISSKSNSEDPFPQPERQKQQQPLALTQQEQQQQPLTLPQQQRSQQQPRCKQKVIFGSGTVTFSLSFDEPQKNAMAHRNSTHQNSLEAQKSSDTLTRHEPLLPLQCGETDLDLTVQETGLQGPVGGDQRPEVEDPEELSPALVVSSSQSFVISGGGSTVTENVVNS
Assay: [35S]-GTPγS binding assay in membrane fraction of human CaR-expressing CHO cells
Assay type: biochemical
Settings: relative to binding with 6 mM calcium only (100×(t′−b)/(t−b))
Description: Preparation of membrane fraction is described bellow. The human CaR-expressing CHO cells were inoculated to a F500 flask in 1.8×10^5 cells/flask followed by cultivation for 2 days. The cells were scraped with 10 ml of Phosphate-Buffered Saline containing 0.02% EDTA. After centrifugation (2000 rpm, 10 min) of the cells, the cell pellet was resuspended into 12 ml of homogenate buffer solution (10 mM NaHCO3, 1 mM EDTA, 1× Protease inhibitor cocktail (pH 7.4)) and homogenized by Polytron™ (20000 rpm, 1 min). The cell debris was removed by centrifugation (2000 rpm, 10 min), and then the CaR-expressing cell membrane fraction was collected by ultracentrifugation (Beckman 70 Ti type rotor, 30000 rpm, 1 hour).
The GTPγS binding activity was measured as follows. Twenty μg of the CaR-expressing cell membrane was incubated with test compounds for 10 min. The assays were carried out at room temperature for an hour in a reaction solution mixture containing 20 mM HEPES (pH. 7.4), 100 mM NaCl, 1 mM MgCl2, 167 μg/ml DTT, 5 μM guanosine 5′-diphosphate, 0.4 nM [^35S]-guanosine 5′-(γ-thio)triphosphate ([^35S]-GTPγS) and 6 mM CaCl2. The mixture was filtered through a GF/C filter. After washing fourth with 300 μl of Phosphate-Buffered Saline, the amount of [^35S]-GTPγS bound to the filter was measured using a Top-count scintillation counter.
Effects of test compounds on [^35S]-GTPγS binding were expressed in percentage terms. This was calculated from the equation [100×(t′−b)]/(t−b) where t′, t and b are values of [^35S]-GTPγS binding (dpm), t′ in the presence of 6 mM calcium and the test compound, t in the presence of 6 mM calcium only and b in the absence of both 6 mM calcium and the test compound.

[1] = test compound 1 μM, compounds marked antagonist

[35S]-GTPγS binding (%) [1]	[35S]-GTPγS binding (%) (test compound 10 μM, compound marked agonist)	SMILES
0 (1 μM) %		CCC(CC)(NC(=O)c1cnn2c1NC(c1ccccc1)CC2(C)C)c1ccc(-c2ccsc2)cc1 (stereo not shown) [Example 423, N-(1-ethyl-1-(4-(3-thienyl)phenyl)propyl)-7,7-dimethyl-5-phenyl-4,5,6,7-tetrahydropyrazolo[1,5-a]pyrimidine-3-carboxamide]
0 (1 μM) %		COc1ccc(C(NC(=O)c2cnn3c2NC(c2ccccc2)CC3C)c2ccc(OC)cc2)cc1 (stereo not shown) [Example 335, N-(bis(4-methoxyphenyl)methyl)-7-methyl-5-phenyl-4,5,6,7-tetrahydropyrazolo[1,5-a]pyrimidine-3-carboxamide]
12 (1 μM) %		CC1(C(F)(F)F)CC(c2ccccc2)Nc2c(C(=O)NC34CC5CC(CC(C5)C3)C4)cnn21 (stereo not shown) [Example 436, N-(1-adamantyl)-7-methyl-5-phenyl-7-(trifluoromethyl)-4,5,6,7-tetrahydropyrazolo[1,5-a]pyrimidine-3-carboxamide]

Second part, the compound before the results:

SMILES	[35S]-GTPγS binding (%) [1]	[35S]-GTPγS binding (%) (test compound 10 μM, compound marked agonist)
O=C(NCC(c1ccccc1)N1CCCC1)c1cnn2c1N[C@@H](c1ccccc1)C[C@H]2C(F)(F)F (stereo in doubt) [Example 111, 5-phenyl-N-(2-phenyl-2-(1-pyrrolidinyl)ethyl)-7-(trifluoromethyl)-4,5,6,7-tetrahydropyrazolo[1,5-a]pyrimidine-3-carboxamide]		256 (10 μM) %
Cc1ccc(C(OC2CCN(C(=O)c3cnn4c3NC(c3ccccc3)CC4C(F)(F)F)CC2)c2ccc(C)cc2)cc1 (stereo not shown) [Example 312, 3-((4-(bis(4-methylphenyl)methoxy)-1-piperidinyl)carbonyl)-5-phenyl-7-(trifluoromethyl)-4,5,6,7-tetrahydropyrazolo[1,5-a]pyrimidine]	10 (1 μM) %	
CCC(CC)(NC(=O)c1cnn2c1NC(c1ccccc1)CC2C(F)(F)F)c1ccc(C(F)(F)F)cc1 (stereo not shown) [Example 310, N-(1-ethyl-1-(4-(trifluoromethyl)phenyl)propyl)-5-phenyl-7-(trifluoromethyl)-4,5,6,7-tetrahydropyrazolo[1,5-a]pyrimidine-3-carboxamide]	0 (1 μM) %	
COc1ccc(C(CNC(=O)c2cnn3c2NC(c2ccccc2)CC3C(F)(F)F)c2ccccc2)cc1 (stereo not shown) [Example 318, N-(2-(4-methoxyphenyl)-2-phenylethyl)-5-phenyl-7-(trifluoromethyl)-4,5,6,7-tetrahydropyrazolo[1,5-a]pyrimidine-3-carboxamide]	34 (1 μM) %	
